Reference: the supplement of paper PMC10307832

Key:
Assay in all cases: relative viability (nuclei count vs DMSO), 5 days (fraction); higher = more cells survive
[1] = compound: CN(C)C(=N)NC(=N)N [Metformin] + CC(C)C[C@H](NC(=O)[C@H](Cc1ccccc1)NC(=O)c1cnccn1)B(O)O [Bortezomib] (partner 0.002 µM)
Summary of the method: (§1)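 Lung cancer cell lines in 1536-well plates were dosed by pin tool the day after seeding, either with one drug alone or with a fixed anchor-drug dose plus five library-drug doses (not always all listed) in √10 steps. After 5 days, cells were fixed and their nuclei stained in one step (final 0.05% Triton X-100, 1% formaldehyde, 1 ug/ml Hoechst), then counted on 4× images. Relative viability is the nuclei count in treated wells divided by that in vehicle wells. Values are medians of duplicate plates.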

[2] = compound: N#CC1(c2ccc(NC(=O)c3cccnc3NCc3ccncc3)cc2)CCCC1 [Apatinib] + CC(C)C[C@H](NC(=O)[C@H](Cc1ccccc1)NC(=O)c1cnccn1)B(O)O [Bortezomib] (partner 0.002 µM)
Summary of the method: as §1

[3] = compound: CN(C)C(=N)NC(=N)N [Metformin] + C[C@@H](Oc1cc(-c2cnn(C3CCNCC3)c2)cnc1N)c1c(Cl)ccc(F)c1Cl [Crizotinib] (partner 1 µM)
Summary of the method: as §1

[4] = compound: N#CC1(c2ccc(NC(=O)c3cccnc3NCc3ccncc3)cc2)CCCC1 [Apatinib] + NC(=O)Nc1cc(-c2cccc(F)c2)sc1C(=O)N[C@H]1CCCNC1 [AZD7762] (partner 0.2 µM)
Summary of the method: as §1

Row | Cell Line | relative viability ([1]; first compound 10 µM) | relative viability ([1]; first compound 31.62 µM) | relative viability ([1]; first compound 100 µM) | relative viability ([1]; first compound 316.23 µM) | relative viability ([1]; first compound 1000 µM) | relative viability ([2]; first compound 0.08 µM) | relative viability ([2]; first compound 0.253 µM) | relative viability ([2]; first compound 0.8 µM) | relative viability ([2]; first compound 2.53 µM) | relative viability ([2]; first compound 8 µM) | relative viability ([3]; first compound 10 µM) | relative viability ([3]; first compound 31.62 µM) | relative viability ([3]; first compound 100 µM) | relative viability ([3]; first compound 316.23 µM) | relative viability ([3]; first compound 1000 µM) | relative viability ([4]; first compound 0.253 µM) | relative viability ([4]; first compound 0.8 µM) | relative viability ([4]; first compound 2.53 µM) | relative viability ([4]; first compound 8 µM) | relative viability ([4]; first compound 0.08 µM)
1 | NCI-H1975 | 0.335 | 0.333 | 0.411 | 0.375 | 0.433 | 0.466 | 0.417 | 0.314 | 0.323 | 0.388 | 1.09 | 1.12 | 1.21 | 1.06 | 1.27 | 0.754 | 0.71 | 0.514 | 0.655 | –
2 | NCI-H2085 | 1.1 | 1.05 | 1.01 | 1.09 | 1.16 | 1.1 | 0.831 | 1.06 | 1.13 | 1.04 | 0.952 | 0.694 | 0.947 | 0.721 | 0.879 | 1 | 0.925 | 0.846 | 0.699 | 0.97
3 | Calu-6 | 0.842 | 0.957 | 1.06 | 0.817 | 0.66 | 0.969 | 1.12 | 0.96 | 0.789 | 0.814 | 0.637 | 0.755 | 0.71 | 0.691 | 0.714 | – | – | – | – | –
4 | LC-2-ad | – | 1.01 | 0.766 | 0.756 | 0.926 | 0.937 | 1.15 | 1.22 | 0.946 | 0.832 | 0.369 | 0.357 | 0.338 | 0.415 | 0.378 | 0.892 | 0.779 | 0.825 | 0.799 | 0.86
5 | SW 900 | – | – | – | – | – | – | – | – | – | – | – | – | – | – | – | 0.587 | 0.563 | 0.374 | 0.401 | 0.656
6 | HCC-827 | – | 0.952 | 1.12 | 0.919 | 0.925 | 0.977 | 0.907 | 1.07 | 1.05 | 1.09 | – | 0.87 | 0.903 | 0.849 | 0.888 | 0.213 | 0.165 | 0.141 | 0.158 | 0.166
7 | EMC-BAC-2 | 1.09 | 1.11 | 1.04 | 1.11 | 1.09 | 1.08 | 0.987 | 1.07 | 0.843 | 0.918 | 0.731 | 0.8 | 0.828 | 0.702 | 0.805 | 1.07 | 1.06 | 0.91 | 0.998 | 1.1
8 | NCI-H322M | 1.32 | 1.45 | 1.19 | 1.36 | 1.48 | 1.23 | 1.19 | 1.05 | 1.24 | 1.25 | 0.884 | 1.01 | 0.958 | 0.854 | 0.78 | 0.58 | 0.549 | 0.471 | 0.471 | 0.553
9 | NCI-H650 | 0.989 | 1.12 | 0.781 | 0.782 | 1.18 | 0.888 | 0.835 | 0.834 | 0.543 | 0.754 | 0.709 | 0.669 | 0.908 | 0.709 | 0.862 | 1.05 | 1.12 | 0.743 | 0.694 | 0.906
